Data from patent US8546524B2, “Smoothened polypeptides and methods of use” (The United States of America, as represented by the …, priority 2006, dated 2013).
No end group written: not given here. *: point of attachment. Myristoyl = CCCCCCCCCCCCCC(=O)*

How the values were obtained:
[1] = tested on: gastric adenocarcinoma cells; assay: Growth inhibition of gastric adenocarcinoma cells (viable cell mass); format: cell-based; conditions: 5 or 10 μM, FIG. 2
[2] = tested on: MCF-7 breast cancer cells; assay: MTT growth inhibition assay in MCF-7 breast cancer cells; format: cell-based; conditions: 48-hour treatment, FIG. 1 / FIG. 3
Method: DU145 prostate cancer cells, PC3 prostate cancer cells, MCF7 breast cancer cells, or Mel-SK-2 melanoma cells (American Type Culture Collection, Manassas, Va.) are inoculated in 96 well plates at 200-400 cells/well density in DMEM medium containing 10% fetal bovine serum and allowed to attach for 24 hours. Cell suspension of 100 μl is used for each well. Polypeptides in 100 μl medium at 2× concentration are added the next day and kept in the CO2 incubator for 48 hours While the polypeptides are added at a final concentration between 1 nM and 10 μM, assays are performed on extra reference plates to determine the cell population density at time 0 (T0). […] The absorbance of the wells is determined at 544 nm by a FLUOstar/POLARstar® Galaxy MicroplateReader (BMG Labtechnologies GmbH, Germany). […] Cellular responses are calculated from the data using the following formula: 100×[(T−T0)/(C−T0)] for T>T0 and 100×[(T−T0)/T0] for T<T0. […]
(§1) Polypeptides based on the second or third intracellular loop of SMO (SMOi2 or i3 polypeptides) (as shown in Table 1) are synthesized as described in Example 1 and are tested as described in Example 2 using MCF-7 breast cancer cells or SK-Mel2 melanoma cells. The IC50 of each peptide as determined by the MTT assay in SK-Mel2 melanoma cells after 48 hour exposure to the peptide is shown in Tables 4 and 5.

SK-Mel2 melanoma cells = format: cell-based; conditions: for inhibitory activity of third loop peptides: comment on Table 5; for IC50: MTT assay, SK-Mel2 melanoma cells, 48 hour exposure, Table 4; for inhibitory activity on SK-Mel2 melanoma cells: 48 hours of exposure, second intracellular loop peptides, comment on Table 4; for inhibition of proliferation of SK-Mel2 cells: 60 hours exposure, FIG. 6
Method: DU145 prostate cancer cells, PC3 prostate cancer cells, MCF7 breast cancer cells, or Mel-SK-2 melanoma cells (American Type Culture Collection, Manassas, Va.) are inoculated in 96 well plates at 200-400 cells/well density in DMEM medium containing 10% fetal bovine serum and allowed to attach for 24 hours. Cell suspension of 100 μl is used for each well. Polypeptides in 100 μl medium at 2× concentration are added the next day and kept in the CO2 incubator for 48 hours While the polypeptides are added at a final concentration between 1 nM and 10 μM, assays are performed on extra reference plates to determine the cell population density at time 0 (T0). The cells are stained with Promega Non-Radioactive Cell Proliferation Assay Kit (MTT) according to manufacture's protocol. The absorbance of the wells is determined at 544 nm by a FLUOstar/POLARstar® Galaxy MicroplateReader (BMG Labtechnologies GmbH, Germany). The assays are performed on control (C) and test (T) cells. Cellular responses are calculated from the data using the following formula: 100×[(T−T0)/(C−T0)] for T>T0 and 100×[(T−T0)/T0] for T<T0.
as §1
Peptides SMOi2-18 and SMOi2-21 are made as essentially described in Example 1 and tested as described in Example 2 using SK-Mel2 cells. Cells are exposed to polypeptides or peptidomimetics for 60 hours.

[3] = Critical micelle concentration by WMC-77 fluorescence; format: physicochemical; conditions: deionized water, 25° C., WMC-77 0.4 μM
Source text: To monitor the formation of hydrophobic nanoparticles, a fluorescing imidazoacridone compound WMC-77 (5-{3-[4-(aminopropyl)-piperazin-1-yl]-propylamino}-2,10b-diaza-aceanthrylen-6-one) is used (Tarasov et al., Photochem. Photobiol. 78: 313-322 (2003)). Compounds like WMC-77 tend to enhance their intrinsic fluorescence dramatically when entering an amphiphilic environment of biological macromolecules like DNA (Tarasova et al., 2003, supra) or hydrophobic core of typical micelles (Tarasov et al., Photochem. Photobiol. 70: 568-578 (1999)). […] Atmospheric oxygen quenching is found to be unimportant, since similar values of fluorescence intensity from BIAs are obtained before and after nitrogen purging. […] Uncorrected fluorescence emission spectra are obtained at 25° C. on a Single Photon Counting Spectrofluorometer FLUOROMAX®-2 (Horiba Jobin Yvon, Edison, N.J.). […]
The increase of peptide/fluorophore ratio causes the permanent increase of WMC-77 fluorescence emission intensity, leveling of at ˜2 μM. The changes in the fluorescence signal are similar to those observed during transfer of imidazoacridones from aqueous to non-polar media such as organic solvents (Tarasov et al., 1999, supra), to the cores of classic surfactant micelles (Tarasov et al., 1999, supra) or upon binding to DNA (Tarasov et al., 2003, supra). […]

Substance: PalRGVMTLFSIKSNHPGLLSEKAASKINETMLR [SMO i3-1]
- inhibition of growth of gastric adenocarcinoma cells compared with cyclopamine [1]: as well or better than cyclopamine
- inhibition of growth of MCF-7 cells [2]: most significant effect on cell growth
- inhibitory activity of third loop peptides (SK-Mel2 melanoma cells): among the most potent polypeptides tested

Substance: Ac-LTYAWHTSFKALGTTYQPLSGKTSYK- ε-Pal [SMOi2-4]
- IC50 (SK-Mel2 melanoma cells): 1 ± 0.1 µM

Substance: Pal-LTYAWHTSFKALGTTYQP [SMOi2-6]
- inhibitory activity on SK-Mel2 melanoma cells (SK-Mel2 melanoma cells): potent inhibitors

Substance: Pal-LTYAWHTSFK [SMOi2-12]
- inhibitory activity on SK-Mel2 melanoma cells (SK-Mel2 melanoma cells): most potent inhibitors

Substance: Pal-LTYAWHTSFKALGTTYQPLSGKYSY [SMOi2-1]
- inhibition of growth of gastric adenocarcinoma cells compared with cyclopamine [1]: as well or better than cyclopamine
- inhibition of growth of MCF-7 cells [2]: inhibit the growth of MCF-7 cells

Substance: Pal-LTYABpaHTSFKAL-Hcy-Biotin [SMOi2-21]
- inhibitory activity on SK-Mel2 melanoma cells (SK-Mel2 melanoma cells): totally abolishes the activity
- inhibition of proliferation of SK-Mel2 cells (SK-Mel2 melanoma cells): even more potent than that of the polypeptide counterpart, SMOi2-8

Substance: Ac-KFSTHWAYTLK- εPal (all D-) [SMOi2-20]
- inhibitory activity on SK-Mel2 melanoma cells (SK-Mel2 melanoma cells): most potent inhibitors
- IC50 (SK-Mel2 melanoma cells): 0.0003 ± 0.0001 µM

Substance: Ac-LLSEKAASKINETMLRK-[…]ε-Pal [SMO i3-6]
- inhibitory activity of third loop peptides (SK-Mel2 melanoma cells): among the most potent polypeptides tested

Substance: PalRGVMTLFSIKSNHPGLLS [SMO i3-8]
- inhibitory activity of third loop peptides (SK-Mel2 melanoma cells): among the most potent polypeptides tested

Substance: VWFVVLTYAWHTSFKAL [SMOi2-14]
- inhibitory activity on SK-Mel2 melanoma cells (SK-Mel2 melanoma cells): does not overcome the loss of activity
- IC50 (SK-Mel2 melanoma cells): > 5 µM

Substance: PalLFSIKSNHPGLLSEKAASKINETMLR [SMO i3-4]
- inhibitory activity of third loop peptides (SK-Mel2 melanoma cells): significantly less active

Substance: Ac-YAWHTSFKALGTTYQPLSGKTSYK- εPal [SMOi2-5]
- IC50 (SK-Mel2 melanoma cells): 1 ± 0.1 µM

Substance: Ac-LTYAWHTSFKAL [SMOi2-9]
- inhibitory activity on SK-Mel2 melanoma cells (SK-Mel2 melanoma cells): significantly reduces the inhibitory activity

Substance: Myristoyl-LTYAWHTSFKAL [SMOi2-26]
- inhibitory activity on SK-Mel2 melanoma cells (SK-Mel2 melanoma cells): most potent inhibitors
- potency relative to palmitoyl peptide (fold less potent) (SK-Mel2 melanoma cells; myristoyl instead of palmitoyl residue): 2.5 fold

Substance: Pal-LTYAWHTSFKA [SMOi2-11]
- inhibitory activity on SK-Mel2 melanoma cells (SK-Mel2 melanoma cells): most potent inhibitors

Substance: WFVVLTYAWHTSFKAL [SMOi2-15]
- inhibitory activity on SK-Mel2 melanoma cells (SK-Mel2 melanoma cells): does not overcome the loss of activity
- IC50 (SK-Mel2 melanoma cells): > 5 µM

Substance: PalLTYAWHTSFKAL (All D) [SMOi2-24]
- inhibitory activity on SK-Mel2 melanoma cells (SK-Mel2 melanoma cells): most potent inhibitors

Substance: Ac-LAKFSTHWAYTLK-ε-Pal (all D-) [SMOi2-16]
- IC50 (SK-Mel2 melanoma cells): 0.006 ± 0.0005 µM

Substance: PalRGVMTLFSIKSNHPGLLSEKA [SMO i3-2]
- inhibitory activity of third loop peptides (SK-Mel2 melanoma cells): among the most potent polypeptides tested

Substance: Pal-LTYABpaHTSFKAL [SMOi2-18]
- inhibitory activity on SK-Mel2 melanoma cells (SK-Mel2 melanoma cells): fairly active
- inhibition of proliferation of SK-Mel2 cells (SK-Mel2 melanoma cells): even more potent than that of the polypeptide counterpart, SMOi2-8

Substance: Pal-LTYAWHTSFKAL [SMOi2-8]
- inhibitory activity on SK-Mel2 melanoma cells (SK-Mel2 melanoma cells): most potent inhibitors
- critical micelle concentration [3]: 0.5 to 1 µM

Substance: Pal-TYAWHTSFKAL [SMOi2-10]
- inhibitory activity on SK-Mel2 melanoma cells (SK-Mel2 melanoma cells): potent inhibitors

Substance: Ac-AKFSTHWAYTLK-εPal (all D-) [SMOi2-17]
- IC50 (SK-Mel2 melanoma cells): 0.0004 ± 0.0001 µM

Substance: SEKAASKINETMLRK-ε-Pal [SMO i3-12]
- inhibitory activity of third loop peptides (SK-Mel2 melanoma cells): among the most potent polypeptides tested

Substance: Ac-GTTYQPLSGKTSYK-εPal [SMOi2-7]
- inhibitory activity on SK-Mel2 melanoma cells (SK-Mel2 melanoma cells): potent inhibitors

Substance: Pal-LTYAWHTSFKALGTTYQPLSGKTSYK- ε-Pal [SMOi2-23]
- inhibitory activity on SK-Mel2 melanoma cells (SK-Mel2 melanoma cells): most potent inhibitors
